# In patent US12037300B2, “Use of a cation source to prevent decomposition of (thio)phosphoric acid triamide urease inhibitors when a phosphorus-containing fertilizer is present” (BASF SE, priority 2016, dated 2024):
# Columns and labels:
# [1] = system: urease, naturally present in the soil; assay: Dräger test: ammonia emission from soil treated with fertilizer granules; assay type: biochemical; details: for prevention of the degradation of U1: 0.25 g salt, 18 days storage; for prevention of the degradation of U1 / influence of DAP on the performance of the tested urease inhibitors in urea/DAP blends on addition of the salt: 10 g DAP; for influence of DAP on the performance of the tested urease inhibitors in urea/DAP blends on addition of the salt: 0.5 g salt, 3 weeks storage
# Text: Alternatively, the amount of the (thio)phosphoric acid triamide (2) in a sample after a certain time period may be determined indirectly by determining the urease inhibiting efficacy that is observable. The urease-inhibiting efficacy may be determined by the Dräger test as outlined in the Examples. The Dräger test is based on the determination of the concentration of ammonia gas that is set free from a soil sample being treated with a urea-containing fertilizer once a day. In general, a certain amount of ammonia is typically produced within a certain time period in a soil sample being treated with a urea-containing fertilizer due to the degradation of the urea-containing fertilizer caused by the urease, which is present in the soil. If the urea-containing fertilizer is provided in combination with a urease inhibitor such as a (thio)phosphoric acid triamide (2), the degradation of the urea-containing fertilizer is slowed down, so that a lower amount of ammonia will be produced in the same time period. On the other hand, if the (thio)phosphoric acid triamide (2) has decomposed to a certain extent, e.g. upon storage, the production of ammonia will be reduced only to a lower extent. The ammonia concentration measured after a certain time period may thus be correlated with the amount of the (thio)phosphoric acid triamide (2) in a sample. In order to exclude a destabilizing effect caused by the urea-containing fertilizer (3a), the (thio)phosphoric acid triamide (2) may be provided in combination with a stabilizing agent, which prevents decomposition caused by the fertilizer (3a). By comparing the decomposition of the (thio)phosphoric acid triamide (2) in the presence of the fertilizer (3a) only, with the decomposition of the (thio)phosphoric acid triamide (2) in the presence of the fertilizer mixture (3) comprising the fertilizer (3a) and the P-containing fertilizer (3b), the decomposition caused by the P-containing fertilizer (3b) can be determined.
# For the Dräger test, 150 g Limburgerhof (Germany) soil is added to a 500 mL wide-mouth jar (9 cm diameter). Fertilizer granules are added and distributed evenly over the soil. The amount of fertilizer added corresponds to 115 mg of urea-N. The soil and fertilizer are then wetted with a fine spray of water (1 mL). Afterwards, the jar is closed with a lid. In the middle of the lid a hole is made in which an ammonia gas test tube (Dräger, Ammoniak 20/a-D 8101301, Diffusionsröhrchen) is placed. The urease, naturally present in the soil, hydrolyses urea into carbon dioxide and ammonia. The concentration of ammonia gas is read out once a day from the scale on the Dräger diffusion tube. All tests are performed in duplicate.
# For the preparation of dry blend fertilizer mixtures, 10 g of urea treated with a urease inhibitor and 10 g of the other fertilizer are added to a small jar. After closing the jar, the fertilizers are mixed by vigorously shaking the jar. The closed jar is then stored at room temperature in a dark place. At the end of the storage time, urea granules are removed and tested using the Dräger test.
# [2] = assay type: physicochemical; details: for decomposition of the urease inhibitors: after one day in the absence of TSP granules
# Text: The amount of the (thio)phosphoric acid triamide in a sample after a certain time period may be detected e.g. by HPLC using method DIN EN 16651. In order to exclude a destabilizing effect caused by the urea-containing fertilizer (3a), the (thio)phosphoric acid triamide (2) may be provided in combination with a stabilizing agent, which prevents decomposition caused by the fertilizer (3a). By comparing the decomposition of the (thio)phosphoric acid triamide (2) in the presence of the fertilizer (3a) only, with the decomposition of the (thio)phosphoric acid triamide (2) in the presence of the fertilizer mixture (3) comprising the fertilizer (3a) and the P-containing fertilizer (3b), the decomposition caused by the P-containing fertilizer (3b) can be determined.
# Active ingredient content on urea was analyzed by HPLC (high-pressure liquid chromatography) using method DIN EN 16651. In case of bulk blends, the urea granules were separated from the other fertilizers before dissolving in water for HPLC analysis.
# Urea granules treated with 0.04 wt.-% U1 active ingredient were mixed with TSP (Triple Super Phosphate) fertilizer granules. After mixing, the samples were stored in closed containers at room temperature. After 1 day of storage, the urea granules were separated from the TSP granules and the active ingredient (a.i.) concentration on the urea was analyzed by HPLC.
compound,measurement,setting,value
O.O.O.O.O.O.O.O=S(=O)([O-])[O-].[Mg+2] [Magnesium sulfate heptahydrate],prevention of the degradation of U1,[1],does prevent the degradation of U1 as effectively as anhydrous magnesium sulfate
"CCCCNP(N)(N)=S [NBPT, N-n-butylthiophosphoric acid triamide]",decomposition of the urease inhibitors,[2],no decomposition
"CCCNP(N)(N)=S [NPPT, N-n-propylthiophosphoric acid triamide]",decomposition of the urease inhibitors,[2],no decomposition
"[Ca+2].[Cl-].[Cl-] [calcium chloride, Calcium chloride anhydrous]",prevention of the degradation of U1,[1],effective in preventing the degradation of U1
same,influence of DAP on the performance of the tested urease inhibitors in urea/DAP blends on addition of the salt,[1],eliminates the influence of DAP
same,prevention of the degradation of U1 active ingredient on wetblend fertilizers,"[1]; 16-8-22 fertilizer treated with CaCl2 solution, 1 month storage",able to prevent the degradation of U1 active ingredient
"O.O.O=S(=O)([O-])[O-].[Ca+2] [calcium sulfate, Calcium sulfate dihydrate]",prevention of the degradation of U1,[1],effective in preventing the degradation of U1
"O=S(=O)([O-])[O-].[Mg+2] [magnesium sulfate, Magnesium sulfate anhydrous]",prevention of the degradation of U1 in fertilizer mixtures containing DAP,"[1]; 0.25 g MgSO4, 10 g DAP, 1 month storage",does prevent the degradation of U1
same,influence of DAP on the performance of the tested urease inhibitors in urea/DAP blends on addition of the salt,[1],eliminates the influence of DAP
same,time for which degradation of U1 in mixtures containing DAP is prevented,[1]; 1.25 wt.-% magnesium sulfate,up to 5 months
same,time for which degradation of U1 in mixtures containing phosphate fertilizers is prevented,[1]; 2.5 wt.-% magnesium sulfate,up to 6 months
same,inhibition of the urease activity by the salt itself,"[1]; 10 g urea, 0.25 g MgSO4, 1 month storage",does not inhibit the urease activity
same,inhibition of the urease enzyme by the salt on its own,"[1]; Example 5, 18 days storage",does not inhibit the urease enzyme
same,amount effective to avoid U1 degradation,[1]; after 5 days storage of the NP mixture (urea/DAP),≤ 0.25 wt.-%
Urea,Remaining a.i. (%),[2]; 24 h,100%
